Measurements: patent publication US20250154686A1, “COMPOUND LIBRARY” (CHUGAI SEIYAKU KABUSHIKI KAISHA, priority 2021, published 2025)

Target: T1, Bcl-2 protein (Recombinant Human Bcl-2 Protein) (Homo sapiens, UniProt P10415)
T1 construct: purchased Novus Biologicals NBP2-34889
Assay: AS-MS evaluation of binding of the Example 4 mixture library (1200 compounds/well) to Bcl-2, ASMS ratio (%)
Conditions: AS-MS, Example 4 mixture library; for ASMS ratio (%) n = 1: Bcl-2, replicate n = 1; for ASMS ratio (%) n = 2: Bcl-2, replicate n = 2
Summary of the method: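 ASMS ratio (%) derived from reverse-phase LC/MS of three samples: Bcl-2 (20 μM) incubation after SEC, protein-free standard without SEC, and protein-free blank after SEC. Compounds were pooled at 1200/well, 20 nM each, incubated 1 h, 23 °C, dark, in Tris-HCl pH 7.4 buffer with Tween-20 and DTT.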

T1 sequence (P10415 whole entry): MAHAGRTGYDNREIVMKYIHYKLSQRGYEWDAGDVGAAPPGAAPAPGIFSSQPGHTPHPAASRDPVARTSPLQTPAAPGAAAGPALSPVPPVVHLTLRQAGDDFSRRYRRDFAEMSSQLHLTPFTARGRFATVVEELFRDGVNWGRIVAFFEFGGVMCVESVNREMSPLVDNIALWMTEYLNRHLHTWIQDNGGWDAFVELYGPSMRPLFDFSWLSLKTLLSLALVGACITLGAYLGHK

| ASMS ratio (%) n = 1 [%] | ASMS ratio (%) n = 2 [%] | SMILES |
| --- | --- | --- |
| 0.0 | −15.5 | CCOc1cccc(-c2csc(C(=O)N3CCN(c4ccc(C(=O)NS(=O)(=O)c5ccc(NCCSc6ccccc6)c(C(F)(F)F)c5)cc4)CC3)c2)c1 [Compound B2R023-01, 4-[4-[4-(3-Ethoxyphenyl)thiophene-2-carbonyl]piperazin-1-yl]-N-[4-(2-phenylsulfanylethylamino)-3-(trifluoromethyl)phenyl]sulfonylbenzamide] |
| 0.0 | −1.2 | CCOc1cncc(-c2csc(C(=O)N3CCN(c4ccc(C(=O)NS(=O)(=O)c5ccc(NCCSc6ccccc6)c(C(F)(F)F)c5)cc4)CC3)c2)c1 [Compound B2R024-01, 4-[4-[4-(5-Ethoxypyridin-3-yl)thiophene-2-carbonyl]piperazin-1-yl]-N-[4-(2-phenylsulfanylethylamino)-3-(trifluoromethyl)phenyl]sulfonylbenzamide] |
| 1.7 | −4.6 | CCOc1cncc(-c2ccc(C(=O)N3CCN(c4ccc(C(=O)NS(=O)(=O)c5ccc(NCCSc6ccccc6)c(C(F)(F)F)c5)cc4)CC3)cc2C)c1 [Compound B2R026-01, 4-[4-[4-(5-Ethoxypyridin-3-yl)-3-methylbenzoyl]piperazin-1-yl]-N-[4-(2-phenylsulfanylethylamino)-3-(trifluoromethyl)phenyl]sulfonylbenzamide] |
| 4.1 | −0.5 | CCOc1cncc(-c2ccc(C(=O)N3CCN(c4ccc(C(=O)NS(=O)(=O)c5ccc(NCCSc6ccccc6)c(C(F)(F)F)c5)cc4)CC3)cc2F)c1 [Compound B2R028-01, 4-[4-[4-(5-Ethoxypyridin-3-yl)-3-fluorobenzoyl]piperazin-1-yl]-N-[4-(2-phenylsulfanylethylamino)-3-(trifluoromethyl)phenyl]sulfonylbenzamide] |
| 6.4 | 0.0 | CCOc1cncc(C#Cc2cncc(C(=O)N3CCN(c4ccc(C(=O)NS(=O)(=O)c5ccc(NCCSc6ccccc6)c(C(F)(F)F)c5)cc4)CC3)c2)c1 [Compound B2R032-01, 4-[4-[5-[2-(5-Ethoxypyridin-3-yl)ethynyl]pyridine-3-carbonyl]piperazin-1-yl]-N-[4-(2-phenylsulfanylethylamino)-3-(trifluoromethyl)phenyl]sulfonylbenzamide] |
| 0.1 | −1.3 | CCOc1cncc(-c2ccccc2CCC(=O)N2CCN(c3ccc(C(=O)NS(=O)(=O)c4ccc(NCCSc5ccccc5)c(C(F)(F)F)c4)cc3)CC2)c1 [Compound B2R034-01, 4-[4-[3-[2-(5-Ethoxypyridin-3-yl)phenyl]propanoyl]piperazin-1-yl]-N-[4-(2-phenylsulfanylethylamino)-3-(trifluoromethyl)phenyl]sulfonylbenzamide] |
| 3.2 | −0.8 | CCOc1cncc(-c2ccc(C(=O)N3CCN(c4ccc(C(=O)NS(=O)(=O)c5ccc(NCCSc6ccccc6)c(C(F)(F)F)c5)cc4)CC3)c3ccccc23)c1 [Compound B2R036-01, 4-[4-[4-(5-Ethoxypyridin-3-yl)naphthalene-1-carbonyl]piperazin-1-yl]-N-[4-(2-phenylsulfanylethylamino)-3-(trifluoromethyl)phenyl]sulfonylbenzamide] |
| 7.1 | −6.0 | CCOc1cncc(-c2cc(C(=O)N3CCN(c4ccc(C(=O)NS(=O)(=O)c5ccc(NCCSc6ccccc6)c(C(F)(F)F)c5)cc4)CC3)cc(C(C)(C)C)c2)c1 [Compound B2R038-01, 4-[4-[3-tert-Butyl-5-(5-ethoxypyridin-3-yl)benzoyl]piperazin-1-yl]-N-[4-(2-phenylsulfanylethylamino)-3-(trifluoromethyl)phenyl]sulfonylbenzamide] |
| 2.6 | 0.2 | CCOc1cncc(-c2cc(C(=O)N3CCN(c4ccc(C(=O)NS(=O)(=O)c5ccc(NCCSc6ccccc6)c(C(F)(F)F)c5)cc4)CC3)cc(C(F)(F)F)c2)c1 [Compound B2R040-01, 4-[4-[3-(5-Ethoxypyridin-3-yl)-5-(trifluoromethyl)benzoyl]piperazin-1-yl]-N-[4-(2-phenylsulfanylethylamino)-3-(trifluoromethyl)phenyl]sulfonylbenzamide] |

The next lines start with the compound.

| SMILES | ASMS ratio (%) n = 1 [%] | ASMS ratio (%) n = 2 [%] |
| --- | --- | --- |
| CCOc1cccc(-c2ccc(C(=O)N3CCN(c4ccc(C(=O)NS(=O)(=O)c5ccc(NCCSc6ccccc6)c(C(F)(F)F)c5)cc4)CC3)cc2C)c1 [Compound B2R025-01, 4-[4-[4-(3-Ethoxyphenyl)-3-methylbenzoyl]piperazin-1-yl]-N-[4-(2-phenylsulfanylethylamino)-3-(trifluoromethyl)phenyl]sulfonylbenzamide] | −1.0 | −2.4 |
| CCOc1cccc(-c2ccc(C(=O)N3CCN(c4ccc(C(=O)NS(=O)(=O)c5ccc(NCCSc6ccccc6)c(C(F)(F)F)c5)cc4)CC3)cc2F)c1 [Compound B2R027-01, 4-[4-[4-(3-Ethoxyphenyl)-3-fluorobenzoyl]piperazin-1-yl]-N-[4-(2-phenylsulfanylethylamino)-3-(trifluoromethyl)phenyl]sulfonylbenzamide] | −3.7 | 1.2 |
| CCOc1cccc(C#Cc2ccccc2C(=O)N2CCN(c3ccc(C(=O)NS(=O)(=O)c4ccc(NCCSc5ccccc5)c(C(F)(F)F)c4)cc3)CC2)c1 [Compound B2R029-01, 4-[4-[2-[2-(3-Ethoxyphenyl)ethynyl]benzoyl]piperazin-1-yl]-N-[4-(2-phenylsulfanylethylamino)-3-(trifluoromethyl)phenyl]sulfonylbenzamide] | – | 0.0 |
| CCOc1cncc(C#Cc2ccccc2C(=O)N2CCN(c3ccc(C(=O)NS(=O)(=O)c4ccc(NCCSc5ccccc5)c(C(F)(F)F)c4)cc3)CC2)c1 [Compound B2R030-01, 4-[4-[2-[2-(5-Ethoxypyridin-3-yl)ethynyl]benzoyl]piperazin-1-yl]-N-[4-(2-phenylsulfanylethylamino)-3-(trifluoromethyl)phenyl]sulfonylbenzamide] | 0.0 | 4.8 |
| CCOc1cccc(C#Cc2cncc(C(=O)N3CCN(c4ccc(C(=O)NS(=O)(=O)c5ccc(NCCSc6ccccc6)c(C(F)(F)F)c5)cc4)CC3)c2)c1 [Compound B2R031-01, 4-[4-[5-[2-(3-Ethoxyphenyl)ethynyl]pyridine-3-carbonyl]piperazin-1-yl]-N-[4-(2-phenylsulfanylethylamino)-3-(trifluoromethyl)phenyl]sulfonylbenzamide] | 0.0 | 4.8 |
| CCOc1cccc(-c2ccccc2CCC(=O)N2CCN(c3ccc(C(=O)NS(=O)(=O)c4ccc(NCCSc5ccccc5)c(C(F)(F)F)c4)cc3)CC2)c1 [Compound B2R033-01, 4-[4-[3-[2-(3-Ethoxyphenyl)phenyl]propanoyl]piperazin-1-yl]-N-[4-(2-phenylsulfanylethylamino)-3-(trifluoromethyl)phenyl]sulfonylbenzamide] | 3.6 | −6.6 |
| CCOc1cccc(-c2ccc(C(=O)N3CCN(c4ccc(C(=O)NS(=O)(=O)c5ccc(NCCSc6ccccc6)c(C(F)(F)F)c5)cc4)CC3)c3ccccc23)c1 [Compound B2R035-01] | 8.3 | 0.9 |
| CCOc1cccc(-c2cc(C(=O)N3CCN(c4ccc(C(=O)NS(=O)(=O)c5ccc(NCCSc6ccccc6)c(C(F)(F)F)c5)cc4)CC3)cc(C(C)(C)C)c2)c1 [Compound B2R037-01, 4-[4-[3-tert-Butyl-5-(3-ethoxyphenyl)benzoyl]piperazin-1-yl]-N-[4-(2-phenylsulfanylethylamino)-3-(trifluoromethyl)phenyl]sulfonylbenzamide] | 6.3 | −7.0 |
| CCOc1cccc(-c2cc(C(=O)N3CCN(c4ccc(C(=O)NS(=O)(=O)c5ccc(NCCSc6ccccc6)c(C(F)(F)F)c5)cc4)CC3)cc(C(F)(F)F)c2)c1 [Compound B2R039-01, 4-[4-[3-(3-Ethoxyphenyl)-5-(trifluoromethyl)benzoyl]piperazin-1-yl]-N-[4-(2-phenylsulfanylethylamino)-3-(trifluoromethyl)phenyl]sulfonylbenzamide] | 9.7 | −4.8 |
| CCOc1cccc(C#Cc2cc(C(=O)N3CCN(c4ccc(C(=O)NS(=O)(=O)c5ccc(NCCSc6ccccc6)c(C(F)(F)F)c5)cc4)CC3)cc(C(F)(F)F)c2)c1 [Compound B2R041-01, 4-[4-[3-[2-(3-Ethoxyphenyl)ethynyl]-5-(trifluoromethyl)benzoyl]piperazin-1-yl]-N-[4-(2-phenylsulfanylethylamino)-3-(trifluoromethyl)phenyl]sulfonylbenzamide] | 18.0 | 0.0 |
| CCOc1cncc(C#Cc2cc(C(=O)N3CCN(c4ccc(C(=O)NS(=O)(=O)c5ccc(NCCSc6ccccc6)c(C(F)(F)F)c5)cc4)CC3)cc(C(F)(F)F)c2)c1 [Compound B2R042-01, 4-[4-[3-[2-(5-Ethoxypyridin-3-yl)ethynyl]-5-(trifluoromethyl)benzoyl]piperazin-1-yl]-N-[4-(2-phenylsulfanylethylamino)-3-(trifluoromethyl)phenyl]sulfonylbenzamide] | 3.4 | 6.0 |
| CCOc1cccc(-c2cnn(-c3cc(C(=O)N4CCN(c5ccc(C(=O)NS(=O)(=O)c6ccc(NCCSc7ccccc7)c(C(F)(F)F)c6)cc5)CC4)cc(C(F)(F)F)c3)c2)c1 [Compound B2R043-01, 4-[4-[3-[4-(3-Ethoxyphenyl)pyrazol-1-yl]-5-(trifluoromethyl)benzoyl]piperazin-1-yl]-N-[4-(2-phenylsulfanylethylamino)-3-(trifluoromethyl)phenyl]sulfonylbenzamide] | 3.4 | −9.0 |
